The test system of one test is carrageenan paw edema. The test is described as follows: rat carrageenan paw edema assay. The class given is in vivo, rat (Sprague-Dawley). To be noted: for ED50: Rattus norvegicus, po, 3 h, read-out: Oral ED50 (95% C.L.); for % Change: 1 hour prior to carrageenan, edema at 3 hours. How it is done: The compounds of the invention are tested in the rat carrageenan paw edema assay to determined their ability to inhibit the acute inflammatory response. 140-180 gm male Sprague-Dawley rats, in groups of 6 animals, are injected subcutaneously in the right paw with 0.1 ml of 1% carrageenan at zero time. Mercury plethysmographic readings (ml) of the paw are made at zero time and 3 hours later. Test compounds are suspended or dissolved in 0.5% methylcellulose and given perorally 1 hour prior to carrageenan administration. The increase in paw volume (edema in ml.) produced by the carrageenan is measured. Paw edema is calculated (3 hour volume minus zero time volume), and percent inhibit of edema is determined. Unpaired Student's t-test is used to determine statistical significance.
(In the carrageenan paw model, swelling and tenderness develop within hours.)

Test [1] concerns IL 1-induced release of neutral protease from rabbit articular chondrocytes. Description: inhibition of IL 1-induced release of neutral protease from rabbit articular chondrocytes (azocoll assay). It counts as cell-based, rabbit (New Zealand White). To be noted: Oryctolagus cuniculus, Chondrocyte, compound added 10 min before human IL 1, 24 h stimulation, read-out: % Inhibition (I.S.D.). As to the method:
The ability of the compounds of the inventions to inhibit interleukin 1 is measured by the ability of the test compounds to inhibit the IL 1-induced release of neutral protease from rabbit articular chondrocytes.
Male New Zealand White rabbits are anesthetized with 50 mg/kg of ketamine (i.m.) and killed by an intracardiac injection of 3 mls. of Nembutal. The knee joints of both legs are resected and the articular surfaces are exposed. Cartilage slices are obtained using a scalpel and are placed in a tissue culture dish (100 mm diameter) containing 10 mls of Hank's balanced salt solution (HBSS). The chondrocytes within the cartilage slices are then liberated by a series of enzyme digestions. The slices are incubated for 10 min. at 37° C. in 0.05% hyaluronidase (Sigma H-3884), rinsed with HBSS and incubated with 0.2% trypsin (Sigma T-2395) for 10 min. at 37° C. The slices are rinsed again and incubated for 10 mins. at 37° C. with 1.2% collagenase (Sigma C-5138). The slices are then rinsed again with HBSS and resuspended in 10 ml of Ham's F-12 medium containing 10% fetal bovine calf serum (FCS) and 0.2% collagenase and incubated overnight at 37° C. in a 5% CO2 incubator. The next day, the medium containing the digested cartilage fragments and liberated chondrocytes is transferred to a 15 ml centrifuge tube and the cells are collected by centrifugation and washed twice and resuspended in Ham's F-12 medium. The cells are then plated into 24-well tissue culture plates (2×10^5 cells/well) and incubated at 37° C. until confluent (usually 4-6 days).
The confluent chondrocytes are rinsed twice with serum-free Ham's F-12 medium and 1 ml is added to each well. Fifty μl of purified human IL 1 (100 Units/ml; Genzyme Corporation, Boston, MA) is then added to stimulate these cells to secrete neutral protease. To measure drug effects, the cells are treated with test compound 10 min. prior to addition of IL 1. The standard screening dose is 10 μM. Twenty-four hours after IL 1 stimulation, supernatant fluids are collected and assayed for neutral protease activity.
The neutral protease activity of chondrocyte supernatant fluids is determined by their ability to degrade an insoluble protease substrate, azocoll (Sigma). Supernatants are treated for 10 min. at room temperature with 350 μM p-aminophenylmurcuric acetate to activate the latent enzyme. Three hundred μl of supernatant is then mixed with 500 μl of a 20 mg/ml suspension of azocoll and incubated at 37° C. for 18-24 hrs. with gentle rocking. The mixtures are centrifuged and the amount of substrate hyrolyzed is determined by measuring the absorbance of the supernatant at 520 nm.
Drug effects are calculated as the % change in enzyme activity (absorbance)by supernatants from drug-treated chondrocytes relative to enzyme activity of supernatants from vehicle-treated chondrocytes as follows: [formula]

Experimental findings from patent US4816464A, “10-Substituted benzo[b][1,6]naphthyridines as inhibitors of interleukin 1” (American Home Products Corporation, priority 1987, dated 1989) are described below.

A word on the ED50: it is the midpoint of the dose-response relation. As usually defined, the inhibition is how much of the control response was suppressed.

As for `CC(=O)Oc1ccccc1C(=O)O` [Aspirin, reference compound], in the test on carrageenan paw edema, the ED50 was found to be 145 mg/kg.
On to `CCCCN1CCc2nc3cc(Cl)ccc3c(Cl)c2C1` [Example 1, 2-Butyl-7,10-dichloro-1,2,3,4-tetrahydrobenzo[b][1,6]naphthyridine], for which the inhibition at 10 µM in test [1] stood at 3%.
Regarding `CCCCCCCCN1CCc2nc3cc(Cl)ccc3c(Cl)c2C1` [Example 2, 7,10-dichloro-1,2,3,4-tetrahydro-2-octylbenzo[b][1,6]naphthyridine], in test [1], the inhibition at 10 µM was determined as 51%.
For `C=CCCCN1CCc2nc3cc(Cl)ccc3c(Cl)c2C1` [Example 4, 7,10-Dichloro-1,2,3,4-tetrahydro-2-(4-pentenyl)benzo[b][1,6]naphthyridine], in test [1], the inhibition at 10 µM is 12 ± 5%.
Turning to `CN1CCc2nc3cc(Cl)ccc3c(Cl)c2C1` [Example 5], the inhibition at 10 µM in test [1] was determined as 26 ± 23%.
Take `CN1CCc2nc3ccc(Cl)cc3c(Cl)c2C1` [Example 6, 8,10-Dichloro-1,2,3,4-tetrahydro-2-methylbenzo[b][1,6]naphthyridine]: in test [1], the inhibition at 10 µM is 13 ± 6%.
In the case of `CN1CCc2nc3cc(Cl)ccc3c(NNc3ccccc3)c2C1` [Example 7, 1-(7-Chloro-1,2,3,4-tetrahydro-2-methylbenzo[b][1,6]-naphthyridin-10-yl)-2-phenylhydrazine], the “% Change” value in the test with carrageenan paw edema (10 mg/kg perorally) turned out to be 41%; in the test on carrageenan paw edema (30 mg/kg perorally) it was 64%; with carrageenan paw edema (90 mg/kg perorally) it was 68%; with carrageenan paw edema (100 mg/kg perorally) it was 59%. In test [1], the inhibition at 1 µM came to 35 ± 22%. Moreover, the inhibition at 10 µM in test [1] is 78 ± 13%.
Take `CCCCN1CCc2nc3cc(Cl)ccc3c(NNc3ccccc3)c2C1` [Example 8, 2-Butyl-7-chloro-1,2,3,4-tetrahydro-10-(2-phenyl-hydrazino)benzo[b][1,6]naphthyridine]: the inhibition at 1 µM in test [1] stood at 22 ± 6%.
As for `CCCCCCCCN1CCc2nc3cc(Cl)ccc3c(NNc3ccccc3)c2C1` [Example 9, 7-Chloro-1,2,3,4-tetrahydro-2-octyl-10-(2-phenyl-hydrazino)benzo[6][1,6]naphthyridine], in test [1], the inhibition at 1 µM is 22 ± 6%.
For the compound `C=CCN1CCc2nc3cc(Cl)ccc3c(NNc3ccccc3)c2C1` [Example 10, 7-Chloro-1,2,3,4-tetrahydro-10-(2-phenylhydrazino)-2-(2-propenyl)benzo[b][1,6]naphthyridine, dihydrate], in test [1], the inhibition at 10 µM is 62 ± 2%.
As to `C=CCCCN1CCc2nc3cc(Cl)ccc3c(NNc3ccccc3)c2C1` [Example 11, 7-Chloro-1,2,3,4-tetrahydro-2-(4-pentenyl)-10-(2-phenyl-hydrazino)benzo[b][1,6]naphthyridine, sesquihydrate], the inhibition at 10 µM in test [1] was determined as 11 ± 26%.
Same read-out and setting: under `COCCNc1c2c(nc3cc(Cl)ccc13)CCN(C)C2` [Example 12, 7-Chloro-1,2,3,4-tetrahydro-N-(2-methoxyethyl)-2-methylbenzo[b]-[1,6]naphthyridin-10-amine, three quarter hydrate] stands 62 ± 28%.
On to `CN1CCc2nc3cc(Cl)ccc3c(NCCN3CCOCC3)c2C1` [Example 13, 7-Chloro-1,2,3,4-tetrahydro-2-methyl-N-(2-(4-morpholinyl)-ethyl)benzo[b][1,6]naphthyridin-10-amine], for which, in test [1], the inhibition at 10 µM came out at 4 ± 13%.
Same read-out and setting: under `CN1CCc2nc3cc(Cl)ccc3c(Nc3ccccc3)c2C1` [Example 14, 10-Anilino-7-chloro-1,2,3,4-tetrahydro-2-methylbenzo[b][1,6]naphthyridine] stands 14 ± 4%; under `CN1CCc2nc3cc(Cl)ccc3c(Oc3ccccc3)c2C1` [Example 15, 7-Chloro-1,2,3,4-tetrahydro-2-methyl-10-phenoxybenzo[b][1,6]naphthyridine], 22 ± 28%.
For the compound `CN1CCN(c2c3c(nc4cc(Cl)ccc24)CCN(C)C3)CC1` [Example 16, 7-Chloro-1,2,3,4-tetrahydro-2-methyl-10-(4-methyl-1-piperazinyl)benzo[b][1,6]naphthyridine], the inhibition at 5 µM in test [1] is 14 ± 3%.
Consider `CN1CCc2nc3cc(Cl)ccc3c(Sc3ccccc3)c2C1` [Example 17, 7-Chloro-1,2,3,4-tetrahydro-2-methyl-10-thiophenylbenzo[b][1,6]naphthyridine], for which the inhibition at 10 µM in test [1] is 44 ± 21%.
As for `CN1CCc2nc3ccc(Cl)cc3c(Oc3ccccc3)c2C1` [Example 18, 8-Chloro-1,2,3,4-tetrahydro-2-methyl-10-phenoxybenzo[b][1,6]naphthyridine], the inhibition at 10 µM in test [1] turned out to be 9 ± 28%.
With `CN1CCc2nc3ccc(Cl)cc3c(Nc3ccccc3)c2C1` [Example 19, 10-Anilino-8-chloro-1,2,3,4-tetrahydro-2-methylbenzo[b][1,6]naphthyridine], the inhibition at 10 µM in test [1] came out at 23 ± 25%.
On to `CN1CCc2nc3ccc(Cl)cc3c(NN)c2C1` [Example 20, (8-Chloro-1,2,3,4-tetrahydro-2-methylbenzo[b][1,6]naphthyridin-10-yl)hydrazine], for which the inhibition at 5 µM in test [1] was determined as 18%.
On to `CN1CCc2nc3ccc(Cl)cc3c(SCCCN)c2C1` [Example 21, 10-(3-Aminopropylthio)-8-chloro-1,2,3,4-tetrahydro-2-methylbenzo[b][1,6]naphthyridine], for which the inhibition at 10 µM in test [1] is 42 ± 26%.
For `COc1ccc2c(c1)c(CC(=O)O)c(C)n2C(=O)c1ccc(Cl)cc1` [Indomethacin, reference compound], the ED50 with carrageenan paw edema was determined as 3.7 mg/kg.
